Where a name gives a salt, the structure may show the parent alone. Read-outs that look alike come from different tables or passages of the source.
Columns and labels:
rat soleus muscles [1] = experiment: Mg2+ concentration required to depress nerve-stimulated force by 50% (Kd,Mg2+), combination with 3,4-AP; conditions: 3,4-AP (10 μM) alone
Protocol: FIGS. 6A-6E. […] Muscles from 4-week-old rats were stimulated to contract by activating the motor nerve with short duration pulses in field stimulation. Muscles contracted every 10 min for 2 s in response to 30 Hz stimulation. Four different experimental conditions were used. […] C) similar to A) but this muscle had been pre-incubated with 3,4-AP. […] The force integral (AUC) was determined at each extracellular Mg^2+ concentration. AUC was plotted against Mg^2+ concentration and the data was fitted to a sigmoidal function. This provided the extracellular Mg^2+ concentration that was required to reduce the nerve-stimulated force to 50% (Mg50) under the four different conditions (see Table 5).
While the use of tubocurarine mimics conditions with reduced neuromuscular transmission due to post-synaptic dysfunction (myasthenia gravis, neuromuscular blockade), the experiments with elevated extracellular Mg^2+ mimics conditions with pre-synaptic dysfunction akin to a range of neuromuscular disorders including Lambert Eaton syndrome, motor neuron disorders and polyneuropathy. Patients with Lambert Eaton syndrome are commonly treated with inhibitors of voltage gated K^+ channels such as 3,4-diaminopyridine (3,4-AP). Based on this it was determined whether recovery of nerve-stimulated force at elevated extracellular Mg^2+ with CIC-1 inhibiting compounds could be added to force recovery with 3,4-AP. […] FIG. 6A-D show recordings of nerve-stimulated force production at different Mg^2+ concentrations when tested under these four experimental conditions. […] To quantify the effect of compounds on Mg^2+ sensitivity the force at the different Mg^2+ concentrations was determined. In plots of nerve-stimulated force against Mg^2+ concentration (FIG. 6E) the Kd,Mg^2+ was determined by fitting four parameter sigmoidal function to the data. Kd, Mg^2+ for the different compounds have been collected in Table 5.

[2] = test system: isolated rat soleus muscles; experiment: Recovery of nerve-stimulated force in isolated rat soleus muscles at elevated extracellular Mg2+ (3.5 mM)
Protocol: (§1) Experiments were performed using rat soleus muscles from either young (4-wk-old) or adult Wistar rats (12-14-week-old). Animal handling, killing and isolation of muscle is described elsewhere All experiments were performed using normal Krebs-Ringer bicarbonate solution (NKR). In solutions with elevated Mg^2+, MgCl2 was added to NKR-solution causing minor increases in osmolarity and ionic strength. In solutions with elevated K^+, 4 mM NaCl was replaced by 4 mM KCl in the NKR.
(§2) In all contraction experiments, isometric force production was determined and force produced during contractions was quantified by measuring the integral of the force response (AUC). Stimulation and force recordings have been described elsewhere. […] In these latter experiments, extracellular recordings of action potentials (M-waves) could be measured without temporal overlap with stimulation artefacts.
The aim was to find compounds that by inhibition of CIC-1 channels can recover nerve-stimulated force under conditions of fatigue including conditions where fatigue is caused by compromised neuromuscular transmission. […]
The next series of experiments determined whether the compounds that recovered nerve-stimulated force in the presence of tubocurarine could also recover nerve-stimulated force at elevated extracellular Mg^2+.

[3] = test system: isolated rat soleus muscles; experiment: Recovery of nerve-stimulated force in isolated rat soleus muscles exposed to sub-maximal tubocurarine
Protocol: as §1, §2
The aim was to find compounds that by inhibition of CIC-1 channels can recover nerve-stimulated force under conditions of fatigue including conditions where fatigue is caused by compromised neuromuscular transmission. Neuromuscular transmission dysfunction can develop because of both pre- and/or post-synaptic complications in connection with a disorder or as part of neuromuscular blockade during/after surgery. In the initial series of drug testing, experiments were performed with isolated muscles in the presence of sub-maximal ACh receptor antagonist tubocurarine. Since the inclusion of tubocurarine caused a partial loss of neuromuscular transmission this experiment mimics the conditions in myasthenia gravis and neuromuscular blockade. To mimic conditions with pre-synaptic complication (Lambert Eaton syndrome, motor neuron disorder, polyneuropathy) the intact nerve-muscle preparations were incubated at elevated extracellular Mg^2+, which is known to suppress release of ACh from nerve terminals of motor neurons.
To identify CIC-1 inhibitors that could be used for treatment of neuromuscular disorders we repeated the experiment shown in FIG. 2A but instead of adding 9-AC we added the compounds of interest in different concentrations within the range from 10 to 500 μM. […] For comparison with the muscle only exposed to tubocurarine (grey trace), the two traces have been overlaid. […] For comparison, muscles only exposed to tubocurarine have been included. The dotted line indicates the recovery of force with C8 when compared to the force production before its addition. This value was used in Table 1 for evaluation of the efficacy of the different compounds in recovering force.

human CIC-1 channels = biological target: T1, human CIC-1 channels (Homo sapiens, UniProt P35523); experiment: Automated patch-clamp on human CIC-1 expressed in CHO cells; type: cell-based; conditions: compound added to the intracellular solution vs vehicle control patches; positive shift reflects CIC-1 inhibition
T1 construct: host or cells: CHO (Chinese hamster ovary) cells
Protocol: The investigatory goal of these experiments was to evaluate how compounds affect the open probability and current amplitude of human CIC-1 channels expressed in CHO cells. Experiments were performed using an automated patch clamp system that allowed high throughput testing of whole cell patches together with both intracellular and extracellular addition of compound.
Automated whole cell patch clamp experiments were performed with the Qpatch 16 system (Sophion Bioscience, Ballerup, Denmark) at room temperature. Data acquisition and analysis were performed in the Qassay software (ver. 5.6, Odense).
To evoke CIC-1 currents in whole cell patches, the membrane potential was initially stepped from a holding potential of −30 mV to +60 mV for 100 ms and then to various test voltages (sweeps) ranging from +120 mV to −140 mV in steps of 20 mV for 300 ms. To obtain tail currents, the membrane potential was stepped to −100 mV after each test voltage for 300 ms and then relaxed to −30 mV for 2 sec between sweeps (FIG. 3). I/V relationships for whole cell instant and steady state current amplitudes were obtained by plotting average current densities at the beginning and at the end of the 300 ms step against the membrane potential (FIG. 4).
In order to determine the relative overall open probability (P0), the instantaneous tail currents were normalized to the maximal tail current obtained following the most positive voltage step and plotted against the test voltage. Plots of normalized tail currents from each whole cell patch were then fitted to a Boltzmann function allowing determination of half activation voltages (V1/2, FIG. 5).
For automated patch clamp experiments extracellular solutions contained: 2 mM CaCl2, 1 mM MgCl2, 10 mM HEPES, 4 mM KCl, 145 mM NaCl, 10 mM Glucose, pH adjusted to 7.4 with NaOH (2 M). Osmolality adjusted to ˜320 using sucrose.
Intracellular solutions contained: 80 mM CsF, 60 mM CsCl, 5/1 mM KOH/EGTA, 10 mM HEPES, 10 mM NaCl, pH adjusted to 7.2 with NaOH (2 M). Osmolality adjusted to ˜320 mOsm using sucrose.
Cells used in patch clamp experiments were Chinese hamster ovary cells (CHO) constitutively expressing human CIC-1 channels. The amino acid sequence encoded by the cDNA used to create this cell line was identical to the translated sequence for GenBank accession number NM_000083.2. Cells were produced by Charles River (Catalogue CT6175, Cleveland Ohio, USA) in a cryopreserved format. Experiments were performed on the cells directly after thawing (3×10^6 cells used in each experiment).
To evaluate the compound effect on CIC-1, when applied directly to the intracellular side of the cell membrane, the half activation voltage, V1/2, was determined from whole cell patches with compound added to the intracellular solution and then compared to V1/2 determined from control cell patches with only vehicle added to the intracellular solution. Additionally, the effect of extracellular added compound was evaluated by determine V1/2 and steady state current amplitudes before and after exchanging the extracellular solution to contain compound.
The difference in half activation voltage of CIC-1 channels, […]V1/2, was determined as the difference between the cell patches treated intracellularly with compound and control cells patches and is reported in Table 4 below. A positive shift in […]V1/2 is reflecting CIC-1 channel inhibition by the tested compound. P-values of <0.05 is considered significant.

rat soleus muscles [4] = experiment: Tubocurarine concentration required to depress nerve-stimulated force by 50% (Kd,tub), combination with acetylcholinesterase inhibitors
Protocol: FIGS. 5A-5E. […] Muscles from 4-week-old rats were stimulated to contract by activating the motor nerve with short duration pulses in field stimulation. Muscles contracted every 10 min for 2 s in response to 30 Hz stimulation. Four different experimental conditions were used. […] After this pre-incubation, increasing concentrations of tubocurarine were added to the bath solutions with 60 min (corresponding to six contractions) between each increase in tubocurarine. […] FIG. 5C similar to FIG. 5A but this muscle had been pre-incubated with neostigmine. […] The force integral (AUC) was determined at each tubocurarine concentration. Such AUC determinations were plotted against tubocurarine concentration for each muscle.
CIC-1 is a novel target in treatment of neuromuscular complications and it was therefore explored whether this approach for symptomatic treatment could be used in combination with existing symptomatic treatment approaches. In myasthenia gravis, which in isolated muscles was mimicked by tubocurarine, the symptoms of muscle fatigue are most commonly treated with inhibitors of acethylcholineesterase of which neostigmine and pyridostigmine are examples. Also, neostigmine is the most commonly used reversal agent of neuromuscular blocked after surgery. […] FIG. 5A-D show recordings of nerve-stimulated force production at different tubocurarine concentrations when tested under the four experimental conditions. […] To quantify the effect of compounds on tubocurarine sensitivity, the force at the different tubocurarine concentrations was determined. In plots of nerve-stimulated force against tubocurarine concentration (FIG. 5E) Kd,tub was determined by fitting four parameter sigmoidal functions to the data and the Kd,tub for the different compounds have been collected in Table 4.

[5] = Rattus norvegicus, 40 min; read-out: 50 μM % change after addition

T1 sequence (P35523 whole entry): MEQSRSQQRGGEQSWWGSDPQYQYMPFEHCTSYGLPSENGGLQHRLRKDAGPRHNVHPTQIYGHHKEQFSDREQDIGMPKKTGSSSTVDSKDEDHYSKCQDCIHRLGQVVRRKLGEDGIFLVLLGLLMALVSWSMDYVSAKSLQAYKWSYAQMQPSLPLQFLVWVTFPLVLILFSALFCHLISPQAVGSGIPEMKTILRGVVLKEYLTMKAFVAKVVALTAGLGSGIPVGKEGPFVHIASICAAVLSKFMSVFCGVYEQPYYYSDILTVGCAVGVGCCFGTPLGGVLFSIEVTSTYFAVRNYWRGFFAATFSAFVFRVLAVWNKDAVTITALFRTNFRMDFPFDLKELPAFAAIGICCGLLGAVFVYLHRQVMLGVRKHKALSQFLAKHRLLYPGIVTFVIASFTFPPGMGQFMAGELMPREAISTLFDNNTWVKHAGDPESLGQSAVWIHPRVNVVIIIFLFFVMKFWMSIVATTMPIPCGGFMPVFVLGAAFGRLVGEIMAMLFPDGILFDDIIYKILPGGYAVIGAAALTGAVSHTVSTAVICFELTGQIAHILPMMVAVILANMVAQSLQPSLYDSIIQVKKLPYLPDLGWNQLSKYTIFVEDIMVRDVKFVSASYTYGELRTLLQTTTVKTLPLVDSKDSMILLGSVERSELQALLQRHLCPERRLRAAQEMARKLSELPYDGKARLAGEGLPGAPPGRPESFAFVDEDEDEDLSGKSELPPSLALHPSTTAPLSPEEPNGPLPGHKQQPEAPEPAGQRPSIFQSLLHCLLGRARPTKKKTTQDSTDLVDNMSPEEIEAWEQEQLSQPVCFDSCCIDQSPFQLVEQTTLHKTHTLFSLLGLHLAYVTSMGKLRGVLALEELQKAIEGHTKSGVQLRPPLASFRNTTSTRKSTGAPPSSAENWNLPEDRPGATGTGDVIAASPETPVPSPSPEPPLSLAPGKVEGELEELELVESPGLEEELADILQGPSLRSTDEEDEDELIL

| SMILES | ΔV½ (human CIC-1 channels) | activation at 50 µM [3, 5] | also measured |
| --- | --- | --- | --- |
| Nc1ccncc1N [3,4-AP, 3,4-diaminopyridine, reference compound] | – | – | Kd (rat soleus muscles [1]): 5800 ± 300 µM |
| O=C(O)c1c2ccccc2cc2ccccc12 [Compound 9-AC, 9-anthracenecarboxylic acid, reference compound] | – | – | recovery of force and M-wave signal [2]: marked recovery of both force and M-wave signal; recovery of force and M-wave signal ([3]; tubocurarine): marked recovery of both force and M-wave signal |
| C[C@H](Oc1ccc(Cl)cc1C1CC1)C(=O)O [Compound A-4, (2S)-2-(4-chloro-2-cyclopropylphenoxy)propanoic acid] | 8.8 mV | – | – |
| C=Cc1cc(Br)ccc1O[C@@H](C)C(=O)O [Compound A-17, (2S)-2-(4-bromo-2-ethenylphenoxy)propanoic acid] | 10.3 mV | – | – |
| C#Cc1cc(Br)ccc1O[C@@H](C)C(=O)O [Compound A-19, (2S)-2-(4-bromo-2-ethynylphenoxy)propanoic acid] | 7.7 mV | – | – |
| C#Cc1cc(Cl)ccc1O[C@@H](C)C(=O)O [Compound A-20, (2S)-2-(4-chloro-2-ethynylphenoxy)propanoic acid] | 26.4 mV | – | – |
| CCC(=O)c1cc(Cl)ccc1O[C@@H](C)C(=O)O [Compound A-30, (2S)-2-(4-chloro-2-propanoylphenoxy)propanoic acid] | 6.2 mV | – | – |
| C[C@H](Oc1ccc(Br)cc1C=C(F)F)C(=O)O [Compound A-36, (2S)-2-[4-bromo-2-(2,2-difluoroethenyl)phenoxy]propanoic acid] | 21.5 mV | – | – |
| C[C@H](OCc1ccccc1)C(=O)O [Compound C5, (2S)-2-(benzyloxy)propanoic acid] | – | -7% | – |
| CC(C(=O)O)S(=O)(=O)c1ccc(F)cc1 (centres unmarked) [Compound C6, 2-(4-fluorobenzenesulfonyl)propanoic acid] | – | -11% | – |
| CCC(Oc1ccc(Cl)cc1)C(=O)O (centres unmarked) [Compound C7, 2-(4-chlorophenoxy)butanoic acid] | – | -12% | – |
| NCC(Oc1ccc(F)cc1)C(=O)O (centres unmarked) [Compound C9, 3-amino-2-(4-fluorophenoxy)propanoic acid hydrochloride] | – | -14% | – |
| CC(Oc1ccc(Cl)cc1)C(=O)Oc1ccc(Cl)cc1 (centres unmarked) [Compound C11, 4-chlorophenyl 2-(4-chlorophenoxy)propanoate] | – | – | activation at 50 µM ([3]; Rattus norvegicus, 40 min, read-out: 50 μM % change after addition): 46% |
| COCC(C)C(Oc1ccc(Br)cc1)C(=O)O (centres unmarked) [Compound C21, 2-(4-bromophenoxy)-4-methoxy-3-methylbutanoic acid] | – | -3% | – |
| CN(C)C(=O)Oc1cccc([N+](C)(C)C)c1 [Neostigmine, neostigmine, reference compound] | – | – | Kd (rat soleus muscles [4]; Neostigmine (10 nM) alone): 0.166 ± 0.013 µM |
| CN(C)C(=O)Oc1ccc[n+](C)c1 [Pyridostigmine, pyridostigmine, reference compound] | – | – | Kd (rat soleus muscles [4]; Pyridostigmine (100 nM) alone): 0.127 ± 0.015 µM |

Source: US20190183812A1, “Compounds For The Treatment Of Neuromuscular Disorders” (NMD PHARMA A/S, priority 2017, published 2019)
